One series addresses AChE (Homo sapiens, UniProt P22303). Nature of the series: Kinetic study for AChE inhibition (Lineweaver-Burk plots). It is filed as biochemical. The procedure:
To try to clarify the mechanism of action of 19 and 20, reciprocal plots of 1/velocity vs. 1/[substrate] were constructed at different concentrations of the substrate acetylthiocholine iodide (0.01–1 mM) by using the spectrometric method by Ellman et al.. Four concentrations of 19 were selected for the studies: 10^−6, 10^−7, 10^−8 and 10^−9 M for the kinetic analysis of AChE inhibition. Four concentrations of 20 were selected for the studies: 10^−5, 10^−6, 10^−7 and 10^−8 M for the kinetic analysis of AChE inhibition. The plots were assessed by a weighted least squares analysis that assumed the variance of velocity (ν) to be a constant percentage of ν for the entire dataset. Slopes of these reciprocal plots were then plotted against the concentration of 19 and 20 in a weighted analysis.

The next series has as its target T1, (ee)AChE (Electrophorus electricus, UniProt O42275).
T1 construct: purchased Sigma Aldrich
Nature of the series: AChE-dependent decarbamoylation (UPLC, LCMS). It is filed as biochemical. As to conditions: 5 µM, PBS pH 7.4, 24 h. The procedure:
The in vitro decarbamoylation of 20 in the presence of AChE was established according to a new analytical method developed by Alix et al.. A large excess of Electrophorus electricus (eel)AChE was added to a solution of 20 in a phosphate-buffered saline (PBS) buffer (pH 7.4) at 25 °C. After 24 h of incubation, the solution was extracted by ethyl acetate, evaporated and solubilized in acetonitrile, and then analyzed by UPLC and LCMS. Owing to its high homology with the active-site sequence of the human AChE and its commercial availability, (ee)AChE is commonly used for in vitro assays and was chosen for this study.
The HPLC analyses were performed using an Agilent pump 1290, an autosampler 1290 and a diode array UV detector 1260 (Agilent technologies, Santa Clara, CA, USA). A reversed phase column C18 (Zorbax1 Eclipse Plus RRHD, 1.8 µm, 2.1 × 50 mm, Agilent) has been used for all components. A binary pump was used and the mobile phase was always composed of a mixture of (A) water (0.1% formic acid) and (B) acetonitrile (0.1% formic acid). Solutions of compound 19 and 20 were prepared in a PBS buffer (pH 7.4). […] The crude product was submerged in 50 µL of ACN, then analyzed by UPLC and LC-MS.

A short description of series [1]: CNS-activity and acute toxicity test. Conditions: male, NMRI, mouse, in vivo, ip. The procedure:
(§1) Animals. Adult male NMRI mice (3 months old, weighing 35–40 g) from Janvier labs (Le Genest-Saint-Isle, France) were used to perform experiments. Mice were housed by ten in standard polycarbonate cages in standard controlled conditions (22 ± 2 °C, 55 ± 10% humidity) with a reversed 12 h light/dark cycle (light on at 7 pm). Food and water were available ad libitum in the home cage. All experiments were conducted (between 9 am and 3 pm) during the active–dark phase of the cycle and were in agreement with the European Directives and French law on animal experimentation (personal authorization n° 14–17 for MB and 14–60 for TF).
(§2) CNS-activity and acute toxicity test. Behavioral and neurological changes induced by graded doses (1, 10, 100 mg/kg) of the tested derivatives were evaluated in mice, in groups of four, by a standardized observation technique at different times (30 min, 3 and 24 h) after intraperitoneal administration. […] The approximate DL50 of the compounds were also calculated through the quantification of mortality after 24 h. Amphetamine (2 mg/kg) and chlorpromazine (10 mg/kg) were used as the stimulant and depressive references, respectively.

Series [2] has as its system mice. Nature of the series: CNS-activity and acute toxicity test. Conditions: mice, IP. The procedure:
as §1, §2

For series [3], the system named is mice. Nature of the series: Spontaneous locomotor activity (actimeter). It is filed as in vivo, NMRI mice. As to conditions: IP 30 min before test, 1, 3 and 10 mg/kg. The procedure: Locomotor activity. The locomotion of mice was measured using an actimeter (Imetronic®, Pessac, France) through infrared detection. Eight individual removable polycarbonate cages (21 cm length, 7 cm wide and 12 cm high), in which each mouse was placed, were used in the actimeter. Locomotor activity was measured by recording the number of interruptions of beams of the red light over a period of 30 min through a recording system attached to the actimeter. Compound 20 was tested at 1, 3 and 10 mg/kg. Chlorpromazine (3 mg/kg) were used as depressive reference.

For series [4], the system named is mice. Nature of the series: Spontaneous alternation (Y maze), MK801-induced deficit. It is filed as in vivo, NMRI mice. Conditions: 1 mg/kg IP 30 min before test, MK801 0.1 mg/kg SC. As to the method:
as §1
Spatial working memory. The antiamnesic activity of the tested compounds was evaluated by a reversal of deficit on spontaneous alternation behavior in the Y maze test. […] The Y maze made of grey plastic consisted of three equally-spaced arms (21-cm long, 7-cm wide with walls 15-cm high). The mouse was placed at the end of one of the arms and allowed to move freely through the maze during a 5 min session, while the sequence of arm entries was recorded by an observer. An arm entry was scored when all four feet crossed into the arm. An alternation was defined as entries into all three arms on a consecutive occasion.
Pharmacological treatments.

“Also recorded” adds a separate entry of the source.

AChE, sequence (P22303 32-617 isoform P22303-2 limits assumed): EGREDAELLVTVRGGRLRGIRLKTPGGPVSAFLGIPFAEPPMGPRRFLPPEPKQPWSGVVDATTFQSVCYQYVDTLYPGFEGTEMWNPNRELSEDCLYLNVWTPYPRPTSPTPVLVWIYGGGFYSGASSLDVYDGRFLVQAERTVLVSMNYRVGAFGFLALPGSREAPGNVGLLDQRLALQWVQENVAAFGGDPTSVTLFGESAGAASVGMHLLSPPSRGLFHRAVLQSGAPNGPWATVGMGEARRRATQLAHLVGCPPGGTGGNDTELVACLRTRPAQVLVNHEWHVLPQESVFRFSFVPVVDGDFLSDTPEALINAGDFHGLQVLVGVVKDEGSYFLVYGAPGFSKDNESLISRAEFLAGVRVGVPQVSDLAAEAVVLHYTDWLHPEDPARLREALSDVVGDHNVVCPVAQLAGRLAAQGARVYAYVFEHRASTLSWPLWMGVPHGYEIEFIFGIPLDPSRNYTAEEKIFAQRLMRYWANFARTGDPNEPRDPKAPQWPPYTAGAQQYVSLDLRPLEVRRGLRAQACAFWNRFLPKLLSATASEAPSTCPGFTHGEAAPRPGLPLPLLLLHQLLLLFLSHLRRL
T1 sequence (O42275 24-633): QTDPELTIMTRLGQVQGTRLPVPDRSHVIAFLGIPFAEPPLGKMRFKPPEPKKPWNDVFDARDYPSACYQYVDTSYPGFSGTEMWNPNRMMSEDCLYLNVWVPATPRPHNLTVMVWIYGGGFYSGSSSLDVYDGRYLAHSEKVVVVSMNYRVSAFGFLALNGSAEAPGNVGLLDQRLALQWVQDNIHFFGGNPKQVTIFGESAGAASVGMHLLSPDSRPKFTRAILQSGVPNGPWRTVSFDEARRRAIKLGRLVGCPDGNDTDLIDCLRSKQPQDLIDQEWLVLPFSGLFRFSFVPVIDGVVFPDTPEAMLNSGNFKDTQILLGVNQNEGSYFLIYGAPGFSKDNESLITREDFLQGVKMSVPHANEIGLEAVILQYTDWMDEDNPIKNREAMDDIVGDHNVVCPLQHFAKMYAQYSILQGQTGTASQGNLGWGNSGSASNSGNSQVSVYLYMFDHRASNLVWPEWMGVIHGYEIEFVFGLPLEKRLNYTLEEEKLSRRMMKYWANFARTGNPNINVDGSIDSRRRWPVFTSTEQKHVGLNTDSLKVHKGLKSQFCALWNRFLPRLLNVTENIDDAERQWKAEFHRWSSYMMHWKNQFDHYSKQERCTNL

Usually LD50 stands for the dose expected to kill half of the subjects tested. Higher therefore signals lower toxicity. Turning to `CCN(C)C(=O)Oc1cccc(CN2CCC(CCC(=O)c3cc(Cl)c(N)cc3OC)CC2)c1.O=C(O)/C=C/C(=O)O` [Compound 20, [3-[[4-[3-(4-Amino-5-chloro-2-methoxyphenyl)-3-oxopropyl]-1-piperidyl]methyl]phenyl] N-ethyl-N-methyl-carbamate fumaric acid salt], the “mechanism of AChE inhibition” value at AChE was “mixed-type AChE inhibitor; also recorded: mixed-type inhibition”. The “decarbamoylation in the presence of (ee)AChE” value on (ee)AChE (250 U/mL (ee)AChE) is “decarbamoylation of 20 and release of 4”. The “chemical conversion in PBS buffer without (ee)AChE” value on (ee)AChE (negative control) was “not chemically converted into 4”. The 50% lethal dose (LD50) at 24 h in series [1] is > 100 mg/kg. Besides, the “Symptoms (Subtoxic Doses)” value was 100, tremors, hypoactivity full recovery after 24h in the series with mice [2] (100 mg/kg) and 1–10, no symptoms in the series with mice [2] (1–10 mg/kg). In addition, the “spontaneous locomotor activity versus NaCl” value with mice [3] is “none of the tested doses of compound 20 (1, 3 and 10 mg/kg) statically modified spontaneous locomotor activity”. Also, the “percentage of spontaneous alternation” value with mice [4] is “significantly different from the value of the chance level”.

These data come from article PMC6696315, “Inhibiting Acetylcholinesterase to Activate Pleiotropic Prodrugs with Therapeutic Interest in Alzheimer’s Disease” (Molecules, 2019).
